Laboratory results from US20250051356A1, “RIFABUTIN ANALOGS FOR THE TREATMENT OF DISEASE” (priority 2021, published 2025).
Values after ≈ are worked out from the molar mass of the structure shown. Like-named read-outs stand apart in the source and are kept apart here.

Key:
Assay type in all cases: cell-based
[1] = system: A. baumannii with Arr-mediated and RpoB mutation-mediated resistance
[2] = system: A. baumannii wild type (WT); assay: MIC against A. baumannii isolate in RPMI + FCS
[3] = system: M. abscessus subsp. abscessus CCUG 71636; assay: MIC against M. abscessus isolate in 7H9 + ADC; details: for MIC: Mycobacteroides abscessus, CCUG71636
[4] = system: A. baumannii RpoB H535Q mutant; assay: microbe, parasite or virus in culture; details: for MIC: Acinetobacter baumannii, RPOBH535QMUTANT, read-out: A. baumannii MIC in RPMI + FCS, RpoB H535Q
[5] = system: M. smegmatis (strain ATCC 700084); assay: MIC against M. smegmatis (90% growth inhibition, BacTiter-Glo); details: 7H9 + ADC, 20 hours
A. baumannii Arr-2 = assay: microbe, parasite or virus in culture; details: for MIC: Acinetobacter baumannii, ARR2, read-out: A. baumannii MIC in RPMI + FCS, Arr-2
[6] = system: Enterococcus faecalis (strain ATCC 51575); assay: MIC against E. faecalis; details: for MIC: Enterococcus faecalis, ATCC51575, CAMHB
[7] = system: M. abscessus subsp. abscessus ATCC 19977; assay: MIC against M. abscessus in Middlebrook 7H9 + ADC; details: for MIC: Mycobacteroides abscessus, ATCC19977
[8] = system: Staphylococcus epidermidis (strain ATCC 12228); assay: MIC against S. epidermidis; details: for MIC: Staphylococcus epidermidis, ATCC12228, CAMHB
[9] = system: M. abscessus subsp. abscessus CCUG 71382; assay: MIC against M. abscessus isolate in 7H9 + ADC; details: for MIC: Mycobacteroides abscessus, CCUG71382
[10] = system: M. abscessus subsp. massiliense CCUG 48898; assay: MIC against M. abscessus isolate in 7H9 + ADC; details: for MIC: Mycobacteroides abscessus, CCUG48898
[11] = system: A. baumannii RpoB H535C mutant; assay: microbe, parasite or virus in culture; details: for MIC: Acinetobacter baumannii, RPOBH535CMUTANT, read-out: A. baumannii MIC in RPMI + FCS, RpoB H535C
[12] = system: M. abscessus subsp. bolletii CCUG 50184; assay: MIC against M. abscessus isolate in 7H9 + ADC; details: for MIC: Mycobacteroides abscessus, CCUG50184
[13] = system: Hemophilus influenzae (strain ATCC 49247); assay: MIC against H. influenzae; details: for MIC: Haemophilus influenzae, ATCC49247, Hemophilus test medium broth
[14] = system: Streptococcus pneumoniae (strain ATCC 49619); assay: MIC against S. pneumoniae; details: CAMHB + 5% laked horse blood
[15] = system: Mycobacterium tuberculosis (H37Rv, strain ATCC 27294)
[16] = system: Streptococcus pyogenes (strain IHMA 1117021); assay: MIC against S. pyogenes; details: CAMHB + 5% laked horse blood
[17] = system: A. baumannii RpoB H535L mutant; assay: microbe, parasite or virus in culture; details: for MIC: Acinetobacter baumannii, RPOBH535LMUTANT, read-out: A. baumannii MIC in RPMI + FCS, RpoB H535L
[18] = system: Enterococcus faecium (strain NCTC 12204); assay: MIC against E. faecium; details: for MIC: Enterococcus faecium
M. kansasii (ATCC 12478) = assay: MIC against M. kansasii in CAMHB + ADC; details: Mycobacterium kansasii, ATCC12478; ATCC 12478; CAMHB + ADC (5%); read-out: MIC M. kansasii
M. avium (ATCC 25291) = assay: MIC against M. avium in CAMHB + ADC; details: Mycobacterium avium, ATCC25291; ATCC 25291; CAMHB + ADC (5%); read-out: MIC M. avium
M. abscessus strains = assay: MIC over the five tested M. abscessus strains in 7H9 + ADC; details: Mycobacteroides abscessus, span over five isolates, read-out: MIC values against the tested M. abscessus strains
M. xenopi (ATCC 19250) = assay: MIC against M. xenopi in CAMHB + ADC; details: Mycobacterium xenopi, ATCC19250; ATCC 19250; CAMHB + ADC (5%); read-out: MIC M. xenopi
[19] = system: A. baumannii (HUMC1 strain); assay: MIC by broth microdilution against A. baumannii in RPMI + 10% FCS; details: Acinetobacter baumannii; HUMC1 strain; RPMI + 10% FCS; read-out: MIC A. baumannii
[20] = system: S. aureus (UAMS-1625 strain); assay: MIC by broth microdilution against S. aureus; details: Staphylococcus aureus, read-out: MIC S. aureus
[21] = system: M. abscessus subsp. abscessus CCUG 71382; assay: MIC against M. abscessus isolate in CAMHB; details: Mycobacteroides abscessus, CCUG71382
[22] = system: M. abscessus subsp. abscessus CCUG 71636; assay: MIC against M. abscessus isolate in CAMHB; details: Mycobacteroides abscessus, CCUG71636; read-out: M. abscessus MIC in CAMHB, abscessus CCUG 71636
[23] = system: M. abscessus subsp. massiliense CCUG 48898; assay: MIC against M. abscessus isolate in CAMHB; details: Mycobacteroides abscessus, CCUG48898
[24] = system: M. abscessus subsp. bolletii CCUG 50184; assay: MIC against M. abscessus isolate in CAMHB; details: Mycobacteroides abscessus, CCUG50184
[25] = system: M. abscessus subsp. abscessus ATCC 19977; assay: MIC against M. abscessus isolate in CAMHB; details: Mycobacteroides abscessus, ATCC19977
[26] = ATCC 19977, 7H9 + ADC, read-out: MIC M. abscessus
[27] = read-out: M. abscessus MIC in 7H9 + ADC, abscessus ATCC 19977
[28] = NCTC12204, strain NCTC 12204, CAMHB, read-out: MIC E. faecium
[29] = Acinetobacter baumannii; read-out: A. baumannii MIC in RPMI + FCS, WT

SMILES | activity against A. baumannii with Arr- and RpoB mutation-mediated resistance [1] | antibacterial activity against A. baumannii wild type strain [2] | MIC [3] [µg/mL] | MIC [4] [µg/mL] | MIC (A. baumannii Arr-2) [µg/mL] | MIC (M. kansasii (ATCC 12478)) [µg/mL] | MIC [6] [µg/mL] | MIC [7, 26] [µg/mL] | MIC [7, 27] [µg/mL] | MIC (M. avium (ATCC 25291)) [µg/mL] | MIC [8] [µg/mL] | MIC [9] [µg/mL] | MIC [10] [µg/mL] | MIC [11] [µg/mL] | MIC [12] [µg/mL] | MIC (M. abscessus strains) [µg/mL] | MIC [13] [µg/mL] | MIC (M. xenopi (ATCC 19250)) [µg/mL] | MIC [19] [µg/mL] | MIC [17] [µg/mL] | further results
CO[C@H]1/C=C/O[C@@]2(C)Oc3c(C)c(O)c4c(c3C2=O)C(=O)C(N2CCOCC2)=C(NC(=O)/C(C)=C\C=C\[C@H](C)[C@H](O)[C@@H](C)[C@@H](O)[C@@H](C)[C@H](OC(=O)CC(=O)OCC2CCCN(C)C2)[C@@H]1C)C4=O (stereo partly drawn) [CGP4832, reference compound] | lost activity compared with rifabutin | did not exhibit strong activity |  |  |  |  |  |  |  |  |  |  |  |  |  |  |  |  |  |  | 
CO[C@H]1/C=C/O[C@@]2(C)Oc3c(C)c(O)c4c(c3C2=O)C(=O)C(N2CCOCC2)=C(NC(=O)/C(C)=C\C=C\[C@H](C)[C@H](O)[C@@H](C)[C@@H](O)[C@@H](C)[C@H](OC(=O)CC(=O)OCC2CCCN(C)C2)[C@@H]1C)C4=O (stereo partly drawn) [CGP 4832] |  |  |  |  |  |  |  |  |  |  |  |  |  |  |  |  |  |  |  |  | M. abscessus MIC in 7H9 + ADC, abscessus CCUG 71636 ([3]; 7H9 + ADC): 2 µg/mL; A. baumannii MIC in RPMI + FCS, RpoB H535Q ([4]; RPMI + FCS): >32 µg/mL; MIC M. smegmatis [5]: 30 µg/mL; A. baumannii MIC in RPMI + FCS, Arr-2 (A. baumannii Arr-2; RPMI + FCS): 4 µg/mL; MIC E. faecalis ([6]; CAMHB): 2000 µg/mL (≈ 2140 µM); M. abscessus MIC in 7H9 + ADC, abscessus ATCC 19977 ([7]; 7H9 + ADC): 4 µg/mL; MIC S. epidermidis ([8]; CAMHB): ≤2 µg/mL; M. abscessus MIC in 7H9 + ADC, abscessus CCUG 71382 ([9]; 7H9 + ADC): 8 µg/mL; M. abscessus MIC in 7H9 + ADC, massiliense CCUG 48898 ([10]; 7H9 + ADC): 4 µg/mL; A. baumannii MIC in RPMI + FCS, RpoB H535C ([11]; RPMI + FCS): >32 µg/mL; M. abscessus MIC in 7H9 + ADC, bolletii CCUG 50184 ([12]; 7H9 + ADC): 8 µg/mL; MIC H. influenzae ([13]; Hemophilus test medium broth): 500 µg/mL (≈ 534 µM); MIC S. pneumoniae [14]: ≤2 µg/mL; MIC M. tuberculosis [15]: 3.6 µg/mL (≈ 3.85 µM); MIC S. pyogenes [16]: 8 µg/mL; A. baumannii MIC in RPMI + FCS, RpoB H535L ([17]; RPMI + FCS): >32 µg/mL; A. baumannii MIC in RPMI + FCS, WT ([2]; RPMI + FCS): 8 µg/mL; MIC E. faecium ([18]; strain NCTC 12204, CAMHB): 2000 µg/mL (≈ 2140 µM)
CO[C@H]1/C=C/O[C@@]2(C)Oc3c(C)c(O)c4c(c3C2=O)C2=NC3(CCN(CC(C)C)CC3)NC2=C(NC(=O)/C(C)=C\C=C\[C@H](C)[C@H](O)[C@@H](C)[C@@H](O)[C@@H](C)[C@H](OC(=O)CC(=O)OCC2CCCN(C)C2)[C@@H]1C)C4=O (stereo partly drawn) [Compound 3] | overcame antibiotic resistance mechanisms | retained strong antibacterial activity | 0.5 | ≤ 0.002 | ≤ 0.002 | 0.125 | 2000 (≈ 2000 µM) | 1 | 1 | 1 | ≤ 2 | 1 | 2 | 0.008 | 0.5 | 0.5 to 2 | 1000 (≈ 998 µM) | 1 | ≤ 0.002 | 0.25 | MIC ([2]; Acinetobacter baumannii, read-out: A. baumannii MIC in RPMI + FCS, WT): ≤ 0.002 µg/mL; MIC [20]: 0.06 µg/mL (≈ 0.0599 µM); MIC [18, 28]: 1000 µg/mL (≈ 998 µM)
CO[C@H]1/C=C/O[C@@]2(C)Oc3c(C)c(O)c4c(c3C2=O)C2=NC3(CCN(CC(C)C)CC3)NC2=C(NC(=O)/C(C)=C\C=C\[C@H](C)[C@H](O)[C@@H](C)[C@@H](O)[C@@H](C)[C@H](OC(C)=O)[C@@H]1C)C4=O [Rifabutin, rifabutin] |  |  | 4 | 0.004 | 0.125 | 0.001 | 4000 (≈ 4720 µM) | 8 | 8 | 0.125 | 4 (≈ 4.72 µM) | 16 | 2 | 0.03 | 8 | 2 to 16 | 500 (≈ 590 µM) | 0.03 | ≤ 0.002 | > 32 | MIC [21]: > 16 µg/mL; MIC [22]: 2 µg/mL (≈ 2.36 µM); MIC [23]: 8 µg/mL (≈ 9.44 µM); MIC [24]: 16 µg/mL (≈ 18.9 µM); MIC [25]: 16 µg/mL (≈ 18.9 µM); MIC [2, 29]: ≤ 0.002 µg/mL; MIC [20]: 0.016 µg/mL (≈ 0.0189 µM); MIC ([18]; NCTC12204, read-out: MIC E. faecium): 125 µg/mL (≈ 148 µM)
CO[C@H]1/C=C/O[C@@]2(C)Oc3c(C)c(O)c4c(O)c(c(/C=N/N5CCN(C)CC5)c(O)c4c3C2=O)NC(=O)/C(C)=C\C=C\[C@H](C)[C@H](O)[C@@H](C)[C@@H](O)[C@@H](C)[C@H](OC(C)=O)[C@@H]1C [Rifampicin, rifampicin] |  |  | > 32 | > 32 | > 32 |  | 1000 (≈ 1220 µM) |  | > 32 |  | ≤ 2 | > 32 | 32 | > 32 | > 32 | > 32 | 250 (≈ 304 µM) |  |  | > 32 | MIC [2, 29]: 32 µg/mL; MIC [18, 28]: 500 µg/mL (≈ 608 µM)
